# According to patent US20240285773A1, “METHODS OF TREATING MYELODYSPLASTIC SYNDROME AND MONITORING THE TREATMENT” (Geron Corporation, priority 2023, published 2024):
# Read-outs that look alike come from different tables or passages of the source. [nps] = N3'→P5' thiophosphoramidate linkage; {Palm} = palmitoyl lipid
# Legend:
# [1] = system: SF3B1; experiment: Gene mutation analysis (NGS): SF3B1 VAF and clinical response; format: in vivo, human
# Description: VAF for the target genes can be determined and/or measured using any convenient methods. In one such method, whole blood collected in an EDTA tube is used to perform Next Generation Sequencing (NGS), for example, using LeukoVantage®. NGS using any other sequencing platform can be used, for example, nanopore sequencing, paired-end sequencing, Ion Torrent sequencing, and single molecule real time (SMRT) sequencing. An MDS gene panel can be used. For example, a gene panel containing one or more of SF3B1, TET2, DNMT3A and ASXL1 can be used. In a specific embodiment, a gene panel that includes the following 36 genes was used: ASXL1, ATM, BCOR, CBL, CEBPA, CSF3R, CUX1, DNMT3A, ETNK1, ETV6, EZH2, FLT3, GATA2, IDH1, IDH2, IKZF1, JAK2, KRAS, NF1, NPM1, NRAS, PHF6, PTEN, PTPN11, RUNX1, SETBP1, SF3B1, SRSF2, STAG2, STAT3, STK11, TET2, TP53, U2AF1, WT1, ZRSR2. The NGS assay can be performed using DNA bait capture methodology on the NextSeq® (Illumina®) platform. Following DNA extraction from leukocytes, a targeted, amplicon-based NGS method is used to detect mutations. […] The percentage of mutation reads will be reported and can be used to assess the size of the clonal population. VAF is the percentage of sequence reads observed matching a specific DNA variant divided by the overall coverage at that locus. Because NGS provides a near random sample, VAF is thus a surrogate measure of the proportion of DNA molecules in the original specimen carrying the variant.
# VAF changes were assessed from blood taken pre- and every 12 weeks post-treatment in patients with greater than or equal to 5% variant allele at baseline and >1 post-baseline assessment. T-tests evaluated group comparison, Fisher's exact test evaluated association, and linear regression evaluated correlation. […] The patients achieving ≥8-weeks, ≥24-weeks, and >1-year TI in the imetelstat group were enriched with patients who had ≥50% reductions in SF3B1 and TET2 VAF compared with placebo (FIG. 10).
# Blood samples were collected at baseline and during study visits approximately every 12 weeks. Following DNA extraction from leukocytes, a targeted, amplicon-based next generation sequencing was performed at Quest Diagnostics using DNA bait capture methodology on the NextSeq® (Illumina®) platform and a LeukoVantage® MDS Gene Panel covering 36 MDS-relevant genes. The lower limit of sensitivity is 5% mutated alleles in a mixed population; the percentage of mutation reads is reported and used to assess the size of the clonal population.
# [2] = system: bone marrow RS cells; experiment: Reduction in bone marrow ring sideroblasts; design: species or system human; settings: in vivo
# Description: FIG. 20. […] Also, RBC-TI responders were higher in patients achieving ≥50% reduction in central bone marrow RS.
# [3] = system: patients with LR-MDS; experiment: Patient-reported fatigue (FACIT Fatigue Scale); format: in vivo, human; settings: PRO population
# Description: To measure patient-reported fatigue, data were collected using the validated Functional Assessment of Chronic Illness Therapy (FACIT) Scale and analyzed in all randomized patients with available fatigue data at baseline (PRO population). The FACIT is a 13-item questionnaire measuring fatigue during daily activity. Proportion of sustained, meaningful deterioration/improvement was defined as percentage of pts with ≥3-point decrease/increase on the FACIT Fatigue Scale (0-52) for ≥2 consecutive treatment cycles. Additionally, time-to-deterioration/improvement was estimated by Kaplan-Meier analysis. Sensitivity analyses were performed in the intent-to-treat population and with alternate definitions of meaningful deterioration.
# Exploratory End Point Patient-Reported Fatigue: Proportion of sustained meaningful deterioration/improvement was defined as percentage of patients with ≥3-point decrease/increase on the Functional Assessment of Chronic Illness Therapy (FACIT) Fatigue Scale (0-52) for ≥2 consecutive treatment cycles.
# Meaningful improvement in FACIT Fatigue: Psychometric supportive evidence for the use of the FACIT Fatigue in the context of LR-MDS confirms the previously published threshold of a 3-point change for meaningful within-patient change for the FACIT Fatigue.
# [4] = system: RBC transfusion-dependent patients with IPSS low or intermediate-1 risk MDS
# [5] = system: TET2; experiment: Gene mutation analysis (NGS): TET2 VAF and clinical response; format: in vivo, human; settings: imetelstat group
# Description: VAF for the target genes can be determined and/or measured using any convenient methods. In one such method, whole blood collected in an EDTA tube is used to perform Next Generation Sequencing (NGS), for example, using LeukoVantage®. NGS using any other sequencing platform can be used, for example, nanopore sequencing, paired-end sequencing, Ion Torrent sequencing, and single molecule real time (SMRT) sequencing. An MDS gene panel can be used. For example, a gene panel containing one or more of SF3B1, TET2, DNMT3A and ASXL1 can be used. […] The percentage of mutation reads will be reported and can be used to assess the size of the clonal population. VAF is the percentage of sequence reads observed matching a specific DNA variant divided by the overall coverage at that locus. […]
# VAF changes were assessed from blood taken pre- and every 12 weeks post-treatment in patients with greater than or equal to 5% variant allele at baseline and >1 post-baseline assessment. T-tests evaluated group comparison, Fisher's exact test evaluated association, and linear regression evaluated correlation. […]
# Blood samples were collected at baseline and during study visits approximately every 12 weeks. […] The lower limit of sensitivity is 5% mutated alleles in a mixed population; the percentage of mutation reads is reported and used to assess the size of the clonal population.
# [6] = SF3B1 VAF ≥50% reduction No (N=55)
# [7] = SF3B1 VAF ≥50% reduction Yes (N=23)
# [8] = by lab assessment, listed as imetelstat
substance,measurement,setting,value
"Imetelstat: first-in-class telomerase inhibitor; synthetic lipid-conjugated 13-mer oligonucleotide N3′→P5′-thiophosphoramidate (TAGGGTTAGACAA; all [nps], 5' {Palm}, sugars by position and methylation of C not given here)",Maximal reduction in SF3B1 VAF,[1]; 18 ≥1-year TI responders with mutation data,−6% to −100%
same,1-Year RBC-TI Yes,[1]; [6],5.5%
same,8-Week RBC-TI Yes,[1]; [6],38.2%
same,24-Week RBC-TI Yes,[1]; [6],23.6%
same,1-Year RBC-TI Yes,[1]; [7],47.8%
same,8-Week RBC-TI Yes,[1]; [7],82.6%
same,24-Week RBC-TI Yes,[1]; [7],69.6%
same,Pearson's r: maximum % reduction in SF3B1 VAF vs maximum change in hemoglobin,"[1]; imetelstat group, n=67",−0.626
same,"Complete elimination of the SF3B1 VAF, patients",[1]; ≥1-year TI responders (of 18),7 patients
same,≥50% SF3B1 VAF reduction,[1]; ≥1-year TI responders (of 18),72.2%
same,"≥50% SF3B1 VAF reduction, patients",[1]; ≥1-year TI responders (of 18),13 patients
same,Patients achieving ≥50% reduction in bone marrow RS cells,[2],41%
same,"HR, time to first sustained meaningful improvement in fatigue vs placebo",[3],1.34
same,"Median time to first sustained, meaningful improvement in fatigue",[3],28.3 weeks
same,"Patients with any episode of sustained, meaningful deterioration in fatigue",[3]; 118 patients,43.2%
same,"Patients with sustained, meaningful improvement in fatigue",[3]; 118 patients,50.0%
same,"Thrombocytopenia, maximum postbaseline CTCAE Grade 4",[4]; Cycle 10-12 (N=53),0 No. of Patients
same,"ALP abnormality, Grade 3-4",[4]; N=118,0 No. of patients
same,Serious TEAE: Abscess limb,[4]; N=118,0 No.
same,Patients with any dose reduction,"[4]; N=118, listed as imetelstat",49%
same,Withdrawal TEAE: Neutropenia,"[4]; N=118, listed as imetelstat",5%
same,Withdrawal TEAE: Thrombocytopenia,"[4]; N=118, listed as imetelstat",3%
same,"Asthenia, Grade 3-4","[4]; TEAE, N=118",0 No. of patients
same,"Constipation, Grade 3-4","[4]; TEAE, N=118",0 No. of patients
same,"Edema peripheral, Grade 3-4","[4]; TEAE, N=118",0 No. of patients
same,G3/4 Neutropenia events,[4]; by lab assessment,279 no. of events
same,G3/4 Neutropenia median duration,[4]; by lab assessment,1.86 Weeks
same,G3/4 Thrombocytopenia events,[4]; by lab assessment,212 no. of events
same,G3/4 Thrombocytopenia median duration,[4]; by lab assessment,1.43 Weeks
same,G3/4 Neutropenia median duration,[4]; [8],1.9 Weeks
same,G3/4 Thrombocytopenia median duration,[4]; [8],1.4 Weeks
same,Dose delays due to neutropenia,[4]; in vivo,50.8%
same,Dose delays due to thrombocytopenia,[4]; in vivo,46.6%
same,Dose reductions due to neutropenia,[4]; in vivo,33.1%
same,Dose reductions due to thrombocytopenia,[4]; in vivo,22.9%
same,Patients with cytopenias reversible to Grade ≤2 within 4 weeks,[4]; in vivo,more than 80%
same,Discontinued: Progressive disease,[4]; n=118,6%
same,Grade 3-4 neutropenia,[4]; patients with TI ≥1 year,95%
same,"Grade 3-4 neutropenia, patients",[4]; patients with TI ≥1 year,20 patients
same,Grade 3-4 thrombocytopenia,[4]; patients with TI ≥1 year,67%
same,"Grade 3-4 thrombocytopenia, patients",[4]; patients with TI ≥1 year,14 patients
same,"Grade 3/4 neutropenia events, mean (SD) duration",[4]; patients with TI ≥1 year,1.78 (1.58) weeks
same,Grade 3/4 neutropenia reversible to grade ≤2 within 4 weeks,[4]; patients with TI ≥1 year,81%
same,"Grade 3/4 thrombocytopenia events, mean (SD) duration",[4]; patients with TI ≥1 year,2.25 (2.48) weeks
same,Grade 3/4 thrombocytopenia reversible to grade ≤2 within 4 weeks,[4]; patients with TI ≥1 year,89%
same,G3/4 Neutropenia resolved <4 weeks,[4]; resolved to ≤ Grade 2,81%
same,G3/4 Thrombocytopenia resolved <4 weeks,[4]; resolved to ≤ Grade 2,86%
same,Pearson's r: maximum % reduction in TET2 VAF vs maximum change in hemoglobin,[5]; n=32,−0.659
same,Pearson's r: maximum % reduction in TET2 VAF vs duration of TI,[5]; n=38,−0.577
